Results as given in patent publication US20100184703A1, “USE OF PEPTIDE DERIVATIVES FOR TREATING PATHOLOGIES RESULTING FROM ISCHEMIA” (CHIESI FARMACEUTICI S.p.A., priority 2007, published 2010).
Entries after “also recorded” stand apart in the source; their conditions may differ. Peptide text beside a SMILES is read from it. * marks the point of attachment. X1 = COC(=O)CC(N*)C(=O)COc1c(F)cccc1F; Quinaldoyl = O=C(c1ccc2ccccc2n1)*

Experiments:
[1] = tested on: ANF, BNP, fibronectin, β-MHC, TNFR1, TNFR2, TNFα, caspase-2 mRNA; test: Quantitative RT-PCR of heart failure, fibrosis, hypertrophy and TNFα signaling markers after ischemia/reperfusion; format: in vivo, rat; conditions: IR model; for mRNA expression level of TNFα / mRNA expression level of TNFα receptor 1 (TNFR1) / mRNA expression level of TNFα receptor 2 (TNFR2) / mRNA expression level of caspase-2: increase in vehicle-injected animals; for mRNA expression level of β-Myosin Heavy Chain (β-MHC): marker for hypertrophy development; for mRNA expression level of fibronectin: marker of fibrosis development; for mRNA expression level of Atrial Natriuretic Factor (ANF) / mRNA expression level of brain natriuretic peptide (BNP): marker of heart failure
Experimental: In a second series of experiments, quantitative RT-PCR was performed to evaluate the level of expression of 2 markers of heart failure, Atrial Natriuretic Factor (ANF) and Brain Natriuretic Factor (BNP) as well as a marker of myocardial fibrosis, fibronectine, and myocardial hypertrophy, βMHC. […] B. mRNA expression levels of fibronectin a marker of fibrosis development, and β-Myosin Heavy Chain (β-MHC) a marker for hypertrophy development

[2] = target: T1, caspase-2 (Rattus norvegicus, UniProt P55215); test: Dosage of caspase-2 activity in myocardial tissue, chronic ischemia (PMI) model; format: in vivo; conditions: PMI 72 h; for caspase-2 activity: pre-treated rats, left ventricle (VG) and septum, 1 mg/kg
T1 construct: Each fragment of tissue was rapidly frozen in liquid nitrogen and kept at −80° C; from tissue; host or cells: rat myocardium (left ventricle, right ventricle, septum, apex) extracts
T1 sequence (P55215 170-325 limits assumed): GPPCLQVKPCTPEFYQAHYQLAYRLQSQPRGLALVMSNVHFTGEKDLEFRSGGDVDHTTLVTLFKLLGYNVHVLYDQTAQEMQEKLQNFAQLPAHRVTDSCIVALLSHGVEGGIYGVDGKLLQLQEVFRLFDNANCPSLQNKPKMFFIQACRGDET
T1 sequence (P55215 348-452 limits assumed): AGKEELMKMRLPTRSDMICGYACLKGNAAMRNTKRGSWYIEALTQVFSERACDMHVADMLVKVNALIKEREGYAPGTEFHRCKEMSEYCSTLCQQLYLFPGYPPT

[3] = tested on: ventricular cardiomyocytes; test: Patch-clamp electrophysiological recordings on ventricular cardiomyocytes of PMI rats; format: in vivo, rat; conditions: for density of transitory current coming out (Ito): cardiomyocytes of the sub-epicardic layer; for membrane capacity (cellular size; hypertrophy induced by myocardial ischemia): cardiomyocytes after 4-5 months
Experimental: The isolated ventricular cardiomyocytes were obtained by enzymatic dissociation with collagenase by Langendorf reversed perfusion (Fauconnier, 2005). The rats were heparinized (0.2 ml, GIBCO® 1000 Ul/ml) and anaesthetized by intraperitoneal injection of pentobarbital ([…], Sanofi Santé, France). The heart was rapidly excised and a retrograde perfusion through the aorta, was performed for 5 min with a calcium-free washing solution (in mM: NaCl 117, KCl 5.7, NaHCO3 4.4, KH2PO4 1.5, MgCl2 1.7, HEPES 21, glucose 11, taurine 20, pH 7.2 (adjusted with NaOH) and O2-bubbled) at 37° C. The solution was then replaced by a similar medium containing 1.3 mg·ml^−1 of collagenase of type IV (Worthington, Freehold, N.J., USA) and perfused during 20-30 min. The heart was then perfused with the initial solution containing 2,3-butanedione monoxime as inhibitor of the muscular contraction (15 mM BDM). The ventricles were then delicately separated and, by mechanic stirring, the cardiomyocytes were liberated in the medium. The dissociated cells were washed in the same solution wherein increased concentrations of CaCl2 were added (0.3, 1, 1.8 mM). The cells of the sub-epicardial layer (EPI) were separated from the sub-endocardial layer (ENDO) by simple manual dissection.
The potentials of action (PA) and ionic currents were measured by the patch-clamp technique in whole cell configuration using an amplifier RK 400 (Biologic, Claix France) interfaced by a analogical/numerical converter DIGIDATA 1200 (Axon Instrument, Sunnyvale, Calif., USA) controlled by a PC. The acquisition and analysis of the data were realized with pCLAMP program (Axon Instrument, Sunnyvale, Calif., USA). The sampling frequency was of 10 KHz and the signals filtrated at 3 KHz. Pipettes comprised between 1 and 1.5 MΩ were used to ensure a good quality of voltage. For the measure of the potentials of action, the pipettes were filled with an internal solution (in mM: 130 KCl, 25 HEPES, 3 MgATP, 0.4 NaGTP, and 0.5 EGTA; the pH was adjusted at 7.2 with KOH). The external medium was composed of (in mM): 135 NaCl, 1 MgCl2, 4 KCl, 11 glucose, 2 HEPES, and 1.8 CaCl2; the pH was adjusted to 7.2. with NaOH.
The PA were started by injections of current of 0.2 ms at an intensity slightly higher than the supraliminal intensity threshold. The transitory potassium current coming out (Ito) was measured with the same internal and external solution (10 μM of tetrodotoxine (TTX) and 2 mM of cobalt chloride were added to the external medium to become independent from the […] and calcic currents, respectively. Ito was measured from depolarizing pulses.
The patch-clamp electrophysiological technique enables the membrane capacity (which reflects the cellular size) to be measured (this capacity reflects the cellular size). The results obtained with the above animals groups confirm the hypertrophy induced by the myocardial ischemia.

Row | Compound | mRNA expression level of TNFα [1] | mRNA expression level of TNFα receptor 1 (TNFR1) [1] | mRNA expression level of TNFα receptor 2 (TNFR2) [1] | mRNA expression level of caspase-2 [1] | mRNA expression level of β-Myosin Heavy Chain (β-MHC) [1] | mRNA expression level of fibronectin [1] | mRNA expression level of Atrial Natriuretic Factor (ANF) [1] | mRNA expression level of brain natriuretic peptide (BNP) [1] | caspase-2 activity [2] | caspase-2 basal activity ([2]; right ventricular (RV)) | density of transitory current coming out (Ito) [3] | membrane capacity (cellular size; hypertrophy induced by myocardial ischemia) ([3]; pre-treatment) | potential of action (PA) duration remodeling, transmural EPI/ENDO gradient ([3]; pre-treatment, sub-epicardial and sub-endocardial cardiomyocytes)
1 | COC(=O)CC(NC(=O)[C@H](C)NC(=O)[C@@H](NC(=O)[C@H](CC(=O)OC)NC(=O)[C@@H](NC(=O)c1ccc2ccccc2n1)C(C)C)C(C)C)C(=O)COc1c(F)cccc1F (stereo partly drawn) [D1, (3S,6S,9S,12S)-methyl 15-(2-(2,6-difluorophenoxy)acetyl)-3,9-diisopropyl-6-(2-methoxy-2-oxoethyl)-12-methyl-1,4,7,10,13-pentaoxo-1-(quinolin-2-yl)-2,5,8,11,14-pentaazaheptadecan-17-oate] (Quinaldoyl-VD(OMe)VA-X1) | prevented | prevented | prevented | prevented | blocked | blocked | comparable to sham-operated animals | comparable to sham-operated animals | inhibited | weak inhibition | very preserved; also recorded: significantly restored | highly prevented | total absence of PA remodeling
2 | CC(C)[C@H](NC(=O)c1ccc2ccccc2n1)C(=O)N[C@@H](CC(=O)O)C(=O)COc1c(F)cccc1F [Q-VD-OPH] | prevented | prevented | prevented | prevented | blocked | blocked | comparable to sham-operated animals | comparable to sham-operated animals | inhibited | – | do not present any improvement; also recorded: no effect | has not effect | –
